# Where two headings read alike, the source gives them in different places.
# Columns and labels:
# [1] = tested on: stomach (gastric disorders, erosion); test: Incidence of gastric disorders (erosion) in rats; conditions: Table 1; ratio of UD50 (gastric) to ED50 (edema)
# Protocol: (§1) The incidence of gastric disorders in rats was tested as follows: Eight-weeks-old male rats of the Wistar strain were used in groups of 5 to 7. After they were fasted for 18 hours or more, a test compound was administered orally. Six hours later, each rat was sacrificed by decapitation. The stomach was removed, filled with 10 ml of physiological saline, and then fixed in 5% formalin. After about 10 minutes, the stomach was incised through the greater curvature and the presence or absence of gastric disorders (in particular, erosion) was examined by visual observation. According to Litchfield-Wilcoxon's method, the dose causing erosion to occur in 50% of the test animals, UD50, was calculated on an all-or-none basis.
# [2] = Incidence of gastric disorders (erosion) in rats; conditions: rat, in vivo, po
# Protocol: as §1
# in vivo = conditions: mouse, in vivo, po
# Protocol: (§2) A test compound was suspended in a 0.2% carboxymethyl cellulose solution and orally administered in a dose of 0.1 ml/10 g of body weight. […] The LD50 value was calculated on the basis of the death rates on the final day.
# [3] = Table 1; literature value: Pharmacometrics, 6(6), 1285 (1972) for indomethacin; Folia Pharmacologica Japonica, 69, 319 (1973) for diclofenac; cited from earlier work
# [4] = tested on: carrageenin-induced edema; test: Carrageenin-induced edema suppression in rats (anti-inflammatory activity); assay type: in vivo, rat (male, Wistar strain); conditions: for ED50: read-out: Anti-inflammatory activity, ED50
# Protocol: Anti-inflammatory activity was tested as follows: Male rats of the Wistar strain were used in groups of 7. A test compound was suspended in a 0.2% carboxymethyl cellulose solution and orally administered in a dose of 0.5 ml/100 g of body weight. […] Three hours after injection of carrageenin, each rat was sacrificed by ether. The feet of both hind legs were amputated at the ankle joint and weighed to detect the difference in weight between both feet. Then, the ability of the test compound to suppress the carrageenin-induced edema was evaluated by comparing the foot weight difference of the test group with that of a control group (consisting of rats to which the solvent alone was administered). Specifically, the rate of suppression of the edema was calculated according to the following equation: [formula]
# [5] = tested on: carrageenin-induced edema; test: Duration of anti-inflammatory activity (carrageenin edema, varied premedication time); assay type: in vivo, rat (male, Wistar strain); conditions: for Rate of suppression of edema: dose = ED50
# Source text: The premedication time was defined as the time interval between the administration of a test compound and the injection of carrageenin.
# [6] = cited from earlier work
# mice = test: in vivo; conditions: for Number of deaths/total number of test animals: p.o.
# Protocol: as §2
# [7] = Rattus norvegicus, po, 3 h, read-out: Rate of suppression of edema
# [8] = 3 h, Table 1, rat, oral, carrageenin edema
# [9] = Rattus norvegicus, po, 3 h, p.o., read-out: Rate of suppression of edema
# [10] = Rattus norvegicus, po, 3 h, 1.25 mg/kg, p.o., read-out: Rate of suppression of edema
# [11] = Rattus norvegicus, po, 3 h, 2.5 mg/kg, p.o., read-out: Rate of suppression of edema
# [12] = Rattus norvegicus, po, 3 h, 5.0 mg/kg, p.o., read-out: Rate of suppression of edema
SMILES,TD50 at 6 h [2],Rate of suppression of edema ([5]; premedicated 1 hr.),Rate of suppression of edema ([5]; premedicated 3 hr.),Rate of suppression of edema ([5]; premedicated 6 hr.),Rate of suppression of edema ([5]; premedicated 12 hr.),Rate of suppression of edema ([5]; premedicated 24 hr.),"ED50 [4, 8]",Anti-inflammatory activity (in words) ([6]; prior art),LD50 at 168 h (in vivo),Rate of suppression of edema ([5]; premedicated 48 hr.),other results
"COc1ccc2c(c1)c(CC(=O)O)c(C)n2C(=O)c1ccc(Cl)cc1 [Indomethacin, indomethacin]",5.4 mg/kg,49.4%,57.6%,29.4%,18.8%,-3.5%,,,,,"Therapeutic index, UD50/ED50 [1]: 1.2; selectivity ratio (in vivo): 3.7; Acute toxicity, LD50 [3]: 17 mg/kg; ED50 ([4]; Rattus norvegicus, po, 3 h): 4.6 mg/kg; inhibition in vivo at 1.25 mg/kg [4, 7]: 19.3%; inhibition in vivo at 2.5 mg/kg [4, 7]: 22.8%; inhibition in vivo at 5 mg/kg [4, 7]: 57.4%; inhibition in vivo at 10 mg/kg [4, 7]: 73.3%"
"Cc1cccc(NC(=O)C2C(=O)c3ccccc3S(=O)(=O)N2C)n1 (stereo not shown) [6-Methyl-2-pyridyl compound, N-(6-methyl-2-pyridyl)-3,4-dihydro-2-methyl-4-oxo-2H-1,2-benzothiazine-3-carboxamide 1,1-dioxide]",5.1 mg/kg,,,,,,4.5 mg/kg,,,,"inhibition in vivo at 1.75 mg/kg ([4]; Rattus norvegicus, po, 3 h, 1.75 mg/kg, p.o., read-out: Rate of suppression of edema): 27.4%; inhibition in vivo at 6.5 mg/kg [4, 9]: 58.9%"
"CN1C(C(=O)Nc2ccccn2)C(=O)c2ccccc2S1(=O)=O (stereo not shown) [Piroxicam, 3,4-dihydro-2-methyl-4-oxo-N-(2-pyridyl)-2H-1,2-benzothiazine-3-carboxamide 1,1-dioxide]",8.2 mg/kg,57.6%,55.3%,40.0%,38.8%,15.3%,1.75 mg/kg,potent and long-lasting anti-inflammatory activity,490 mg/kg,1.7%,"Degree of toxicity and incidence of gastric disorders (in words) ([6]; in vivo): not appreciably different from those of indomethacin and diclofenac; inhibition in vivo at 0.625 mg/kg ([4]; Rattus norvegicus, po, 3 h, 0.625 mg/kg, p.o., read-out: Rate of suppression of edema): 26.9%; inhibition in vivo at 1.25 mg/kg [4, 10]: 42.5%; inhibition in vivo at 2.5 mg/kg [4, 11]: 57%; inhibition in vivo at 5 mg/kg [4, 12]: 76.4%"
"O=C(O)Cc1ccccc1Nc1c(Cl)cccc1Cl [Diclofenac, diclofenac]",9.2 mg/kg,45.9%,24.7%,17.6%,,-1.2%,,,,,"ED50 ([4]; Rattus norvegicus, po, 3 h): 5 mg/kg; inhibition in vivo at 2.5 mg/kg [4, 7]: 29.7%; inhibition in vivo at 5 mg/kg [4, 7]: 48.5%; inhibition in vivo at 10 mg/kg [4, 7]: 69.3%"
"CN1C(C(=O)Nc2nccs2)C(=O)c2ccccc2S1(=O)=O (stereo not shown) [Sudoxicam, 3,4-dihydro-2-methyl-4-oxo-N-(2-thiazolyl)-2H-1,2-benzothiazine-3-carboxamide 1,1-dioxide]",11.8 mg/kg,49.8%,52.1%,39.5%,31.6%,10.4%,5.1 mg/kg,potent and long-lasting anti-inflammatory activity,500 mg/kg,-2.4%,"Degree of toxicity and incidence of gastric disorders (in words) ([6]; prior art): not appreciably different from those of indomethacin and diclofenac; Therapeutic index, UD50/ED50 [1]: 2.3; Number of deaths/total number of test animals (mice; 200 mg/kg): 0/5; Number of deaths/total number of test animals (mice; 400 mg/kg): 2/5; Number of deaths/total number of test animals (mice; 800 mg/kg): 4/5; Number of deaths/total number of test animals (mice; 1,000 mg/kg): 5/5; Therapeutic index and safety margin (in words) (mice; from Table 1): superior in therapeutic index and safety margin to indomethacin and diclofenac; selectivity ratio (in vivo): 98; inhibition in vivo at 1.25 mg/kg [4, 10]: 14.9%; inhibition in vivo at 2.5 mg/kg [4, 11]: 30.7%; inhibition in vivo at 5 mg/kg [4, 12]: 45.5%; inhibition in vivo at 10 mg/kg ([4]; Rattus norvegicus, po, 3 h, 10.0 mg/kg, p.o., read-out: Rate of suppression of edema): 69.3%"
"CN1C(C(=O)Nc2ccc(Cl)cn2)C(=O)c2ccccc2S1(=O)=O (stereo not shown) [5-Chloro-2-pyridyl compound, N-(5-chloro-2-pyridyl)-3,4-dihydro-2-methyl-4-oxo-2H-1,2-benzothiazine-3-carboxamide 1,1-dioxide]",,,,,,,,,,,"inhibition in vivo at 6.5 mg/kg [4, 9]: 18.9%"
"Cc1cc(NC(=O)C2C(=O)c3ccccc3S(=O)(=O)N2C)no1 (stereo not shown) [Isoxicam, 3,4-dihydro-2-methyl-N-(5-methyl-3-isoxazolyl)-4-oxo-2H-1,2-benzothiazine-3-carboxamide 1,1-dioxide]",250 mg/kg,54.2%,54.2%,45.8%,36.3%,19.5%,15.5 mg/kg,lower than that of Piroxicam and Sudoxicam,5000 mg/kg,1.1%,"Degree of toxicity and incidence of gastric disorders (in words) ([6]; in vivo): relatively low; inhibition in vivo at 3.75 mg/kg ([4]; Rattus norvegicus, po, 3 h, 3.75 mg/kg, p.o., read-out: Rate of suppression of edema): 7.5%; inhibition in vivo at 7.5 mg/kg ([4]; Rattus norvegicus, po, 3 h, 7.5 mg/kg, p.o., read-out: Rate of suppression of edema): 32.3%; inhibition in vivo at 15 mg/kg ([4]; Rattus norvegicus, po, 3 h, 15.0 mg/kg, p.o., read-out: Rate of suppression of edema): 46.8%; inhibition in vivo at 30 mg/kg ([4]; Rattus norvegicus, po, 3 h, 30.0 mg/kg, p.o., read-out: Rate of suppression of edema): 69.4%"
"CN1C(C(=O)Nc2cccc(F)n2)C(=O)c2ccccc2S1(=O)=O (stereo not shown) [Compound of formula (1), N-(6-fluoro-2-pyridyl)-3,4-dihydro-2-methyl-4-oxo-2H-1,2-benzothiazine-3-carboxamide 1,1-dioxide]",297 mg/kg,56.6%,54.8%,43.2%,39.1%,20.7%,7.5 mg/kg,,> 5000 mg/kg,3.4%,"Number of deaths/total number of test animals (mice; 3,000 mg/kg): 0/5; Number of deaths/total number of test animals (mice; 4,000 mg/kg): 0/5; Number of deaths/total number of test animals (mice; 5,000 mg/kg): 0/5; Acute toxicity, LD50 (mice; Table 1, mouse, oral, 7 days): > 5,000 mg/kg; Degree of safety (in words) (mice; mouse, in vivo): very high degree of safety; inhibition in vivo at 2 mg/kg ([4]; Rattus norvegicus, po, 3 h, 2.0 mg/kg, p.o., read-out: Rate of suppression of edema): 20%; inhibition in vivo at 4 mg/kg ([4]; Rattus norvegicus, po, 3 h, 4.0 mg/kg, p.o., read-out: Rate of suppression of edema): 32%; inhibition in vivo at 8 mg/kg ([4]; Rattus norvegicus, po, 3 h, 8.0 mg/kg, p.o., read-out: Rate of suppression of edema): 54.6%; inhibition in vivo at 16 mg/kg ([4]; Rattus norvegicus, po, 3 h, 16.0 mg/kg, p.o., read-out: Rate of suppression of edema): 66.6%; Anti-inflammatory activity (in words) ([4]; summary of results): potent and long-lasting anti-inflammatory activity; Duration of anti-inflammatory activity (in words) ([5]; from Table 3): excellent in the duration of anti-inflammatory activity"

# From patent US4376119A, “Benzothiazine derivative” (priority 1981, dated 1983)
